How the values were obtained:
Procathepsin L = Procathepsin L (Homo sapiens, UniProt P07711); test: Inhibition of human liver cathepsin L after 5 mins by microplate reader analysis
Cathepsin B = Cathepsin B (Homo sapiens, UniProt P07858); test: Inhibition of human liver cathepsin B after 5 mins by microplate reader analysis
NCI-H460 = test: Cytotoxicity against human NCI-H460 cells after 48 hrs by SRB assay; format: functional; conditions: NCI-H460, 48 h
DU-145 = test: Cytotoxicity against human DU145 cells after 48 hrs by SRB assay; format: functional; conditions: DU-145, 48 h

Sequence of Procathepsin L (P07711 whole entry): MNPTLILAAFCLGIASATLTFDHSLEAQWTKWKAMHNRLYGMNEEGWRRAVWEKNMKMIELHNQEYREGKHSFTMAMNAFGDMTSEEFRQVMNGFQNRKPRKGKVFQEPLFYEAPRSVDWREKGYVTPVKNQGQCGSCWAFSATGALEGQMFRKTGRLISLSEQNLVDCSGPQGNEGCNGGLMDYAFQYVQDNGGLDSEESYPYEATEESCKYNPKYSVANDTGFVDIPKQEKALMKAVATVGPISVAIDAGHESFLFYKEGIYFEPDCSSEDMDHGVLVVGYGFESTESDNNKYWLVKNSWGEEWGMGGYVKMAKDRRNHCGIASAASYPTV

| IC50 (Procathepsin L) | IC50 (Cathepsin B) | Structure (SMILES) | GI50 (NCI-H460) | GI50 (DU-145) |
| --- | --- | --- | --- | --- |
| > 10 µM | > 10 µM | NC(=S)NN=C1c2cc(Br)ccc2-c2ccc(Br)cc21 | – | – |
| > 10 µM | > 10 µM | NC(=S)N/N=C(/c1ccccc1)c1cccc(O)c1 | – | – |
| 0.131 µM | > 10 µM | NC(=S)N/N=C(\c1cccc(O)c1)c1cccc(Br)c1 | 23.3 µM | 21.6 µM |
| > 10 µM | > 10 µM | NC(=S)N/N=C(/c1ccccc1)c1cccs1 | – | – |
| 0.37 µM | > 10 µM | NC(=S)N/N=C(/c1cccc(Br)c1)c1sccc1Br | – | – |
| 0.814 µM | > 10 µM | NC(=S)N/N=C(/c1cccc(Br)c1)c1cc(Br)cs1 | – | – |
| 0.931 µM | > 10 µM | NC(=S)N/N=C(/c1cccc(Br)c1)c1ccc(Br)s1 | – | – |
| > 10 µM | > 10 µM | NC(=S)N/N=C(/c1ccccc1)c1cccnc1 | – | – |
| 1 µM | > 10 µM | NC(=S)N/N=C(\c1cccnc1)c1cccc(Br)c1 | – | – |
| > 10 µM | > 10 µM | NC(=S)N/N=C(\c1ccc(Br)nc1)c1cccc(Br)c1 | – | – |
| > 10 µM | > 10 µM | NC(=S)N/N=C(/c1cccc(Br)c1)c1cccnc1Br | – | – |
| > 10 µM | > 10 µM | NC(=S)N/N=C(/c1cccc(Br)c1)C1CCCCC1 | – | – |
| 5.41 µM | > 10 µM | NC(=S)N/N=C(\Cc1ccccc1)c1ccccc1 | – | – |
| > 10 µM | > 10 µM | NC(=S)NN=C1c2ccccc2-c2ccccc21 | – | – |
| > 10 µM | > 10 µM | CC(C)(C)[Si](C)(C)Oc1ccc(/C(=N\NC(N)=S)c2cccc(Br)c2)cc1Br | – | – |
| 0.232 µM | > 10 µM | NC(=S)N/N=C(/c1cccc(Br)c1)c1cc(O)cc(Br)c1 | – | – |
| > 10 µM | > 10 µM | CC(C)(C)[Si](C)(C)Oc1cc(Br)cc(/C(=N\NC(N)=S)c2cccc(Br)c2)c1 | – | – |
| > 10 µM | > 10 µM | NC(=S)N/N=C(/c1cccc(Br)c1)c1cccc(Br)c1O | – | – |
| 3.6 µM | 1.42 µM | COc1ccc(/C(=N\NC(N)=S)c2cc(OC)c(OC)c(OC)c2)cc1O | – | – |
| 9.65 µM | > 10 µM | NC(=S)N/N=C(/c1cccc(Br)c1)c1ccc2c(c1)CCCC2 | – | – |
| 0.151 µM | 1.6 µM | CC(=O)Oc1cccc(/C(=N\NC(N)=S)c2cccc(Br)c2)c1 | – | – |
| > 10 µM | > 10 µM | NC(=S)N/N=C(/c1cccc(Br)c1)c1cccc(OCc2ccccc2)c1 | – | – |
| > 10 µM | > 10 µM | CC(C)(C)[Si](C)(C)Oc1cccc(/C(=N\NC(N)=S)c2cccc(Br)c2)c1 | – | – |
| 0.126 µM | 9.49 µM | NC(=S)N/N=C(/c1cccc(Br)c1)c1ccc(O)c(Br)c1 | – | – |
| > 10 µM | > 10 µM | NC(=S)NN=C(c1ccccc1)c1ccccc1 [BENZOPHENONE-THIOSEMICARBAZONE] | – | – |
